For test [1], the system named is PI3K/Akt pathway. Kind of test: Luc-Akt-PH/YFP-membrane BRET in HEK293T cells (recruitment of Akt to the membrane). Format: cell-based. The conditions noted are these: for effect on the recruitment of kinase Akt to the membrane: in the absence of the hormone. An excerpt: To measure the activity of the PI3-kinase pathway by the BRET technique, HEK293T cells are transfected with plasmids allowing, on the one hand, the expression of the PH (Pleckstrin Homology) domain of the Akt protein which has been fused to the luciferase and, on the other hand, a membrane-addressing sequence which has been fused to the YFP protein. When the PH domain of Akt is recruited to the membrane by the PIP3s, an energy transfer between the luciferase that is coupled to the PH domain of Akt and the membrane YFP protein takes place. The measured BRET signal is a control of the production of PIP3s at the membrane and is a reflection of the activation of the PI-3-kinase/Akt pathway in real time on cells.

In test [2] the target is T1, IR-Grb14 interaction (Homo sapiens, UniProt P06213).
T1 construct: a vector encoding the insulin receptor fused to the luciferase (IR-Luc); made in house; host or cells: HEK293T (transfected); IR-Luc was partially purified on wheat germ lectin sepharose; Grb14-YFP was used as crude lysate
T1 sequence (P06213 763-1382 limits assumed): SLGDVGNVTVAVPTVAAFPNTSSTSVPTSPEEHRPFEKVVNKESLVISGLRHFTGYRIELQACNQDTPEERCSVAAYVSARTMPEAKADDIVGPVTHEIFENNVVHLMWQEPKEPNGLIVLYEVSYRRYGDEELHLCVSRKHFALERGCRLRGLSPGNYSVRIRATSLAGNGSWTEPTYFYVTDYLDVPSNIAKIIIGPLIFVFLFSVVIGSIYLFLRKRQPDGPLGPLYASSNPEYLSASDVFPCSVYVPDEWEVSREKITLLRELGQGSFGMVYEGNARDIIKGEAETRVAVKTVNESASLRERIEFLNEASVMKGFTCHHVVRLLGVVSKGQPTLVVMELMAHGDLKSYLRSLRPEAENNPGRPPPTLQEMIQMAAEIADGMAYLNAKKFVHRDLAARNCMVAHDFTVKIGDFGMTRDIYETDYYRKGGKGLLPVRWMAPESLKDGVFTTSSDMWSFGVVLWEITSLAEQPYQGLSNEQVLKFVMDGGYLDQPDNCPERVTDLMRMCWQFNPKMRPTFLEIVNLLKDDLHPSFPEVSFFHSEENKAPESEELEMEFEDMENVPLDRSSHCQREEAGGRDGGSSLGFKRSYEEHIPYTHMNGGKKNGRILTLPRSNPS
T1 sequence (P06213 28-758 partner limits assumed): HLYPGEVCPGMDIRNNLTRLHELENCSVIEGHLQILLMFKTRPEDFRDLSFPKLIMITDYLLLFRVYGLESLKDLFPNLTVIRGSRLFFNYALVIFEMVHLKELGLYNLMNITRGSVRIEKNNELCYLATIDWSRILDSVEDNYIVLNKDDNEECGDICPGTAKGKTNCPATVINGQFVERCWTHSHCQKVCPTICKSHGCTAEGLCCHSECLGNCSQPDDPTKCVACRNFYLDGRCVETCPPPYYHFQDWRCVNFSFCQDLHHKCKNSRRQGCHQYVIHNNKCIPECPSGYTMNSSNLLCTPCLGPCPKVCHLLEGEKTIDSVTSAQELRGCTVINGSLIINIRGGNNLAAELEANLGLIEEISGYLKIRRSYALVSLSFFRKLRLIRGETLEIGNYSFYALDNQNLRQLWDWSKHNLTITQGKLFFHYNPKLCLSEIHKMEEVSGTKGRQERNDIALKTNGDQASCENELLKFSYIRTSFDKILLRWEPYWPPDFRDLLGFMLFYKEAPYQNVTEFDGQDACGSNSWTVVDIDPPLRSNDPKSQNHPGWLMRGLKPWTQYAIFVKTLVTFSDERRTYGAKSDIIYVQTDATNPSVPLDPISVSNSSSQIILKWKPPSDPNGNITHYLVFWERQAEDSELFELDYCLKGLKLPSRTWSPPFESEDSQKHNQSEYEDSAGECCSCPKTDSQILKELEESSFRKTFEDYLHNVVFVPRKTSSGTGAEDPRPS
In words: IR-Luc/Grb14-YFP BRET technique in a cell-free system. Format: binding. The conditions noted are these: for % BRET signal/DMSO control / remaining activity at 50 µM: insulin stimulation (100 nM). On the procedure:
Compounds according to the invention were experimentally assessed for their inhibitory effect on the IR-Grb14 interaction by a BRET technique in a cell-free system described briefly below.
On the one hand, HEK293T cells were transfected with a vector encoding the insulin receptor fused to the luciferase (IR-Luc). Before lysis, the cells transfected with IR-Luc were stimulated or not with 100 nM insulin for 10 minutes. The IR-Luc lysates were recovered and then purified on sepharose beads coupled with wheat germ lectin (WGL for Wheat Germ Lectin). The IR-Luc receptors were then eluted and then frozen in liquid nitrogen before being stored at −80° C. On the other hand, HEK293T cells were transfected either with a vector encoding the Grb14 protein fused to the YFP (Grb14-YFP), or with the empty plasmid pcDNA3. The cells transfected with Grb14-YFP or with the empty plasmid pcDNA3 were lysed 48 h after transfection. After centrifugation, the lysates are recovered and frozen at −80° C.
The insulin receptors (IR-Luc) partially purified from cells stimulated or not with insulin were incubated for 20 minutes with the inhibitor compounds according to the invention suspended in DMSO. The cellular extracts from cells transfected with Grb14-YFP (or the empty plasmid pcDNA3) were then added and then after 40 minutes of incubation, coelenterazine was added and BRET reading was initiated. The results are expressed as a percentage of the BRET signal obtained in the presence of the molecules tested compared to the BRET signal of the DMSO control.

For test [3], the system named is PEPCK and G6Pase expression. Kind of test: Expression of neoglucogenesis genes in hepatocytes in primary culture (RT-qPCR). Type of test: cell-based, mice. The conditions noted are these: 1 nM insulin; glucagon 10 nM. On the procedure: FIG. 6, the effect of the compound of Formula (Ia) according to the invention (black bars) on the expression of insulin target genes, PEPCK (FIG. 6A) and G6Pase (FIG. 6B), involved in the neoglucogenesis pathway. Hepatocytes in primary culture are cultured for 8 h in the presence of compounds of Formula (Ia) (50 μM), insulin (1 nM) and glucagon (pre-incubation 1 h at 10 nM). The relative quantification of mRNAs is performed by RT-qPCR. The values are related to the quantification of the 18S gene in the same sample in order to normalize the results. The results are the average of 3 to 5 independent experiments (*p<0.05, **p<0.01, by Anova followed by a Newman-Keuls test).
To study the inhibitory effect of insulin on neoglucogenesis gene expression, hepatocytes from mice in primary culture were pre-incubated with 10 nM glucagon.

Setting [4] is: in the presence of insulin (5 nM).
[5] abbreviates: read-out: % BRET signal/DMSO control, 50 μM.

Read-outs that look alike come from different tables or passages of the source.

On to `CC(C)(C)c1cc(C=C(C#N)C#N)cc(Br)c1O` [AG1024, reference compound], for which the “BRET signal after inhibition of tyrosine kinase activity of the insulin receptor” value in test [1] (pre-incubation 1 h with 25 μM) was “very significant drop”.
Consider `CCOc1cc(C=C2C(=O)NC(=O)NC2=O)ccc1OCc1cccc(C(=O)O)c1` [Comparative A], for which, in test [2] (50 μM), the “significant decrease in the BRET signal / reduction in the IR-Grb14 interaction (in words)” value was “do not allow for a significant decrease” and the “% BRET signal/DMSO control” value is 103% (+/−15%).
Turning to `CCOc1cc(C=C2C(=O)NC(=O)NC2=O)ccc1OCc1cccc(C(=O)O)c1` [Comparative B], in test [2] (50 μM), the “significant decrease in the BRET signal / reduction in the IR-Grb14 interaction (in words)” value is given as “do not allow for a significant decrease” and the “% BRET signal/DMSO control” value was 93% (+/−7%).
With `CCOc1cc(C=C2C(=O)NC(=O)NC2=O)ccc1OCc1cccc(C(=O)O)c1` [Comparative C], in test [2] (50 μM), the “significant decrease in the BRET signal / reduction in the IR-Grb14 interaction (in words)” value is on record as “do not allow for a significant decrease” and the “% BRET signal/DMSO control” value is recorded as 103% (+/−8%).
The like results for `CCOc1cc(C=C2C(=O)NC(=O)NC2=O)ccc1OCc1cccc(C(=O)O)c1` [Comparative D] were, in that order, “do not allow for a significant decrease” and 121% (+/−8%).
Take `CCOc1cc(C=C2C(=O)NC(=O)NC2=O)ccc1OCc1cccc(C(=O)O)c1` [Comparative E]: in test [2] (50 μM), the “significant decrease in the BRET signal / reduction in the IR-Grb14 interaction (in words)” value was “do not allow for a significant decrease” and the “% BRET signal/DMSO control” value is given as 98% (+/−9%).
`CCOc1cc(C=C2C(=O)NC(=O)NC2=O)ccc1OCc1cccc(C(=O)O)c1` [Comparative F]: in test [2] (50 μM), the “significant decrease in the BRET signal / reduction in the IR-Grb14 interaction (in words)” value is “do not allow for a significant decrease” and the “% BRET signal/DMSO control” value was 93% (+/−24%).
On to `Cc1ccc(/C=C/C(=O)O)o1` [Comparative IVa, (E)-3-(5-methylfuran-2-yl)acrylic acid, reference compound], for which, in test [1], the “effect on the recruitment of kinase Akt to the membrane” value is given as “no effect”. For the same compound, in test [1] (setting [4]), the BRET delta is given as −61 (+/−35) and the “reduction of the recruitment of the Akt protein to the membrane” value is “about 50%”. Also, the “significant decrease in the BRET signal / reduction in the IR-Grb14 interaction (in words)” value in test [2] (50 μM) is “do not allow for a reduction”. For the same compound, in test [2] (setting [5]), the remaining activity at 50 µM came to 91%.
Regarding `Cc1noc(NS(=O)(=O)c2ccc(N)cc2)c1C` [Comparative Va, 4-amino-N-(3,4-dimethyl-1,2-oxazol-5-yl)benzenesulfonamide, reference compound], in test [1], the “effect on the recruitment of kinase Akt to the membrane” value was “no effect”. In addition, in test [1] (setting [4]), the BRET delta is reported as −27 (+/−23) and the “effect on the production of PIP3s at the membrane” value is recorded as “no effect”. Also, the “significant decrease in the BRET signal / reduction in the IR-Grb14 interaction (in words)” value in test [2] (50 μM) is recorded as “do not allow for a reduction”. Further, in test [2] (setting [5]), the remaining activity at 50 µM was determined as 98%.
As to `COc1cc(C=C2C(=O)NC(=S)NC2=O)ccc1OCc1cccc(C(=O)O)c1` [IIc], the “decrease in the BRET signal between the insulin receptor and the Grb14 protein” value in test [2] (50 μM, with insulin stimulation) is reported as 25%. Besides, the remaining activity at 50 µM in test [2] (setting [5]) amounted to 75%.
Consider `O=C1NC(=S)NC(=O)C1=Cc1ccc(OCc2cccc(C(=O)O)c2)cc1` [IId], for which the BRET delta in test [1] (without insulin) is recorded as 67 (+/−33). In addition, in test [2] (setting [5]), the remaining activity at 50 µM is 69%.
Regarding `CCOc1cc(C=C2C(=O)NC(=S)NC2=O)ccc1OCc1ccc(C(=O)O)cc1` [IIe], the BRET delta in test [1] (without insulin) was 96 (+/−50). In addition, in test [2] (setting [5]), the remaining activity at 50 µM amounted to 65%.
As for `CCOc1ccc(/C=C2/C(=O)NC(=S)N(c3ccccc3)C2=O)cc1C(=O)O` [IIf], the BRET delta in test [1] (without insulin) is given as 54 (+/−44). For the same compound, the remaining activity at 50 µM in test [2] (setting [5]) was found to be 65%.
Turning to `CCc1ccc(/C=C/C(=O)Nc2ccc(S(=O)(=O)Nc3onc(C)c3C)cc2)o1` [Ib], the BRET delta in test [1] (without insulin) is given as 119 (+/−26). The remaining activity at 50 µM in test [2] (50 μM, read-out: % BRET signal/DMSO control) was 58%.
Regarding insulin, the “effect on the recruitment of the Akt protein to the membrane after AG1024” value in test [1] (cells pre-incubated 1 h with 25 μM AG1024, Ia 50 μM, insulin 5 nM) is “no longer have any effect”. For the same compound, in test [1] (insulin 5 nM alone), the BRET delta entry is given as “about 100”. For the same compound, in test [3], the “inhibition of glucagon-induced G6Pase expression” value lay within 60 to 70% and the “inhibition of glucagon-induced PEPCK expression” value lay within 60 to 70%.
